The values that follow come from PubChem BioAssay AID850 (SRMLSC, 2007).

The nature of the assay: concentration-response yeast growth inhibition under permissive conditions, counter-assay for yeast lifespan-shortening chemical project (AID 850).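 Further: growth read as optical density after one day of incubation.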 The conditions noted are these: Saccharomyces cerevisiae growth inhibition, permissive control, measured here: maximum growth inhibition, stronger effect = higher value.

Molecules are shown by their SMILES.

`Cc1nn(-c2ccccc2)c2sc(C(=O)O)cc12` returned an inhibition (at 50 µM) of 41.3%.

`Clc1ccc2nnnc(-c3ccccc3)c2c1`: the inhibition (at 50 µM) is 37.5%.

`COc1ccc2[nH]c3c(Cl)ncnc3c2c1` displayed an inhibition (at 50 µM) of 35.5%.

In turn, `Cc1ccc2nc(-c3ccc(NS(=O)(=O)c4ccc(F)cc4)cc3)sc2c1` came in with an inhibition (at 50 µM) of 42.9%.

Regarding `CCc1cc2c(cc(C(=O)O)n2C)s1`, the inhibition (at 25 µM) was 48.3%.

On to `CCOc1cc(CNCCO)cc(Br)c1OCc1ccc(Cl)cc1Cl`, for which the inhibition (at 50 µM) turned out to be 46.1%.

As to `CS(=O)(=O)N1CCN(C(=O)c2ccccc2F)CC1`, for the setting “at 3.125 µM”, the inhibition was 34.8%.

The compound `Cc1ccc(C(=O)/C=C/c2cn(CN3CCN(C)CC3)c3ccccc23)cc1` gave an inhibition (at 50 µM) of 34.5%.

For `Cc1cccc(OCCCOc2cccc3cccnc23)c1C`, the inhibition (at 50 µM) was found to be 33.1%.

For `Cc1c2cc(O)c(=O)cc-2oc2cc(O)c(O)cc12`, the inhibition (at 25 µM) is 39.9%.

`COC(=O)c1ccc2c(c1O)C(=O)c1ccccc1C2=O`: the inhibition (at 50 µM) was found to be 57.6%.

For the compound `Cc1ccc(N=Nc2ccc(O)c3ncccc23)cc1`, the inhibition (at 50 µM) is 30.3%.

With `O=c1c2cccc3c2c(nn1CN1CCOCC1)-c1ccccc1-3`, the inhibition (at 50 µM) was 47.5%.

In turn, `OCc1ccc(O)c2ncccc12` had an inhibition (at 50 µM) of 33.1%.

As to `O=S(=O)(Nc1ccc(-c2nc3ccccc3o2)cc1)c1ccccc1`, under “at 50 µM”, the inhibition turned out to be 30.1%.

Where the note is “at 25 µM”, `Cc1cc(C)c2c(N=NN(C)C)[nH]nc2n1` showed an inhibition of 35.6%.

Consider `CC(C)N=c1scc(-c2ccco2)n1/N=C/c1ccc(O)c(O)c1`, for which the inhibition (at 50 µM) is 36.7%.

Regarding `CCCCn1c(=O)c(C(=O)NCc2ccncc2)c(O)c2ccccc21`, the inhibition (at 50 µM) worked out at 41.3%.

Compound `C=CCSC(=C(C#N)C#N)c1cc2c([nH]1)CCCC2` showed an inhibition (at 50 µM) of 32.9%.

In the case of `Cc1onc(-c2ccccc2)c1C(=O)NC(=S)NNC(=O)c1ccc(O)cc1O`, the inhibition (at 12.5 µM) was 44.7%.

`N#CCSc1nc2ccccc2c2nc3ccccc3n12` yielded an inhibition (at 25 µM) of 39.2%.

`COc1ccc(-n2c(Cc3cccn3C)nnc2SCC(=O)N2CCCC2)cc1` returned an inhibition (at 12.5 µM) of 37.7%.

For the compound `O=C(c1c[nH]c(C(=O)C(Cl)(Cl)Cl)c1)c1ccccc1Cl`, the inhibition (at 25 µM) worked out at 46.3%.

In the case of `Cc1cc2sc(C(=O)O)c(C)c2s1`, the inhibition (at 50 µM) was 57.7%.

Where the note is “at 50 µM”, `COc1ccc(NCc2ccc([N+](=O)[O-])s2)c(OC)c1` registered an inhibition of 43.9%.

Compound `O=c1cccc2n1Cc1cc3ccccc3nc1-2` yielded an inhibition (at 50 µM) of 32.4%.

For the compound `CC(=O)c1c(C)oc2c1C(=O)c1ccccc1C2=O`, the inhibition (at 50 µM) was determined as 39.7%.

`CCOC(=O)c1cnc(-n2nc(C)cc2C)nc1NNc1cc(C)nc(-c2ccccc2)n1` came in with an inhibition (at 50 µM) of 48.1%.

Turning to `O=C(O)c1cc2c(ccc3ccccc32)oc1=O`, the inhibition (at 50 µM) stood at 38.3%.

As to `O=C(N/N=C1\CC2CC=CC12)c1ccc(COc2ccccc2)cc1` (stereo unspecified), the inhibition (at 50 µM) turned out to be 35.1%.

As for `OCCN(CCO)CC(O)COc1ccc(C23CC4CC(CC(C4)C2)C3)cc1` (stereo unspecified), the inhibition (at 25 µM) amounted to 35.6%.

Compound `Cc1cc(OCc2ccc(C(=O)NN=C3CCCC3)cc2)ccc1Cl` registered an inhibition (at 50 µM) of 54.2%.

`O=C(Cc1cccs1)NNC(=S)NC(=O)c1ccccc1` returned an inhibition (at 25 µM) of 41%.

`CN1CCN(Cc2cc(COCc3ccccc3)c3cccnc3c2O)CC1` yielded an inhibition (at 50 µM) of 51.7%.

Where the note is “at 50 µM”, `CC1CCc2c(sc3nc(CN4CCOCC4)nc(Sc4ccccc4)c23)C1` (stereo unspecified) returned an inhibition of 33.9%.

For `Cn1c2ccccc2c(=O)n2c(=O)c3ccccc3cc12`, the inhibition (at 12.5 µM) amounted to 30.2%.

`c1cc2c(cc1C1CCCCC1)c1c3n2CCCNC3CCC1` (stereo unspecified) had an inhibition (at 50 µM) of 38.7%.

Where the note is “at 50 µM”, `c1ccc(-c2ccc(-c3ccccn3)nn2)nc1` yielded an inhibition of 36.1%.

With `O=S(=O)(Nc1ccc(-c2csc(-c3ccccc3)n2)cc1)c1ccc(F)cc1`, the inhibition (at 3.125 µM) worked out at 34.3%.

The compound `CCCCc1ccc(NS(=O)(=O)c2cccs2)cc1` registered an inhibition (at 50 µM) of 34.1%.

In the case of `Cc1ccc2nc(-c3ccc(NS(=O)(=O)c4ccc(F)c(F)c4)cc3)sc2c1`, the inhibition (at 12.5 µM) stood at 39.1%.

In the case of `Cc1cc2c(cc(C(=O)O)n2C)s1`, the inhibition (at 50 µM) was 34.3%.

For the compound `Oc1c(Cl)cc(Cl)cc1Sc1cc(Cl)cc(Cl)c1O`, the inhibition (at 25 µM) worked out at 40.3%.

`O=C1CN(CC(=O)N2CCCCC2)c2ccccc2O1` registered an inhibition (at 50 µM) of 37.7%.

Under “at 50 µM”, `Cc1cc(N2CCN(C(=O)c3ccco3)CC2)n2ncc(-c3ccccc3)c2n1` returned an inhibition of 51.7%.

Turning to `O=C(NC(Nc1nc2ccc([N+](=O)[O-])cc2s1)(C(F)(F)F)C(F)(F)F)c1ccccc1`, the inhibition (at 50 µM) was determined as 34.1%.

Regarding `CCCCCC1CCC(C(=O)O)CC1` (stereo unspecified), the inhibition (at 50 µM) was found to be 51.8%.

Consider `O=C(CCCSc1ccccc1)Nc1nc(-c2ccccn2)cs1`, for which the inhibition (at 50 µM) stood at 39%.

`O=c1c2c([N+](=O)[O-])cc([N+](=O)[O-])cc2sn1-c1ccc(Br)cc1`: the inhibition (at 25 µM) came to 36.1%.

In turn, `O=Nc1c2nc3ccccc3n(O)c-2c2ccccc12` had an inhibition (at 50 µM) of 37.8%.

For `O=C(CN1CCN(c2ncc(C(F)(F)F)cc2Cl)CC1)NCCNc1ncc(C(F)(F)F)cc1Cl`, the inhibition (at 50 µM) is 38.3%.

In the case of `Oc1ccccc1NCC(O)Cn1ccc2ccccc21` (stereo unspecified), the inhibition (at 50 µM) turned out to be 30.2%.

Compound `O=C(O)Cc1cc(I)c(Oc2ccc(O)c(I)c2)c(I)c1` came in with an inhibition (at 50 µM) of 38.6%.

`Cc1cc(C)c2c(N=NN3CCCCC3)[nH]nc2n1`: the inhibition (at 25 µM) is 39.3%.

As to `COc1ccc(N/N=C(\C#N)C(N)=O)cc1`, the inhibition (at 25 µM) stood at 36.4%.

On to `Cc1ccc(N2CCOCC2)c2c1C(=O)c1ccccc1C2=O`, for which the inhibition (at 50 µM) was 32.3%.
